From paper PMC4467913 (Phytochemistry letters, 2015)

How the values were obtained:
trypsin = assay: Protease inhibition assay, trypsin; type: biochemical; conditions: highest concentration tested 13 µM
Escherichia coli = assay: Growth inhibition assay, E. coli; type: cell-based; conditions: highest concentration tested 50 µg/mL
elastase = assay: Protease inhibition assay, elastase; type: biochemical; conditions: highest concentration tested 13 µM
[1] = system: MDA-MB-435 cancer cell line; assay: Cytotoxicity assay, MDA-MB-435; type: cell-based, human; conditions: highest concentration tested 33 µM
Staphylococcus aureus = assay: Growth inhibition assay, S. aureus; type: cell-based; conditions: highest concentration tested 50 µg/mL
[2] = system: Mycobacterium tuberculosis; conditions: highest concentration tested 50 µg/mL
Candida albicans = assay: Growth inhibition assay, C. albicans; type: cell-based; conditions: highest concentration tested 50 µg/mL
chymotrypsin = assay: Protease inhibition assay, chymotrypsin; type: biochemical; conditions: highest concentration tested 13 µM
HT-29 cancer cell line = assay: Cytotoxicity assay, HT-29; type: cell-based, human; conditions: highest concentration tested 33 µM
Mycobacterium smegmatis = assay: Growth inhibition assay, M. smegmatis; type: cell-based; conditions: highest concentration tested 50 µg/mL

cyclo[L-Val2-L-Ser-L-Ile-L-Asn-L-Val1-L-Phe-L-Pro-] [Microseiramide (1)]
no activity was observed: protease inhibition (trypsin) | growth inhibition (Escherichia coli) | protease inhibition (elastase) | cytotoxicity [1] | growth inhibition (Staphylococcus aureus) | growth inhibition [2] | growth inhibition (Candida albicans) | protease inhibition (chymotrypsin) | cytotoxicity (HT-29 cancer cell line) | growth inhibition (Mycobacterium smegmatis)
